Values joined by “and” are separate entries in the source; they are usually repeats but may differ in a detail not shown here. Equal values may be shown once.

Type in all cases: binding
Data set [1] deals with Target double-stranded DNA (DNA-1), 203-bp PCR product from pBR322 plasmid. The experiment in a line: Strand invasion in the presence of SSB, gel shift assay. The settings on record: SSB 6 μM, oligonucleotide 200 nM, DNA-1 30 nM, 37° C. for 120, 60 or 30 minutes. The source says:
(§1) Target double-stranded DNA molecules are as follows. • (DNA-1) A 203-bp PCR product produced using pBR322 plasmid (commercially available product) as a template (SEQ ID NOs: 23 and 24). • (DNA-2) A 203-bp PCR product produced using artificial gene T1825G (commercially available product) based on pBR322 plasmid as a template. • (DNA-3) A 203-bp PCR product produced using artificial gene T1825C (commercially available product) based on pBR322 plasmid as a template. • (DNA-4) A 203-bp PCR product produced using artificial gene T1825A (commercially available product) based on pBR322 plasmid as a template.
Each of the sample solutions was reacted at 37° C. for 120 minutes, 60 minutes, or 30 minutes using a thermal cycler (StepOnePlus, Applied Biosystems).
After the completion of the reaction, two gels respectively having the sample solutions applied thereon prepared, and PAGE (Poly-Acrylamide Gel Electrophoresis) was carried out on the gels simultaneously under the following conditions. […]
After the completion of the electrophoresis, one of the gel was subjected to fluorescence staining (GelGreen Nucleic Acid Stain 10,000×, Biotium) for staining a nucleic acid, and the other gel was subjected to silver staining (EzStain Silver, ATTO corporation) for staining a nucleic acid and a protein simultaneously. […]

For data set [2] the test system is unchanged. The data set can be described thus: Strand invasion in the absence of SSB, gel shift assay. The settings on record: no SSB.
Text: as §1
The reaction was carried out using a thermal cycler (StepOnePlus, Applied Biosystems), in which each of the sample solutions was cooled from 94° C. to 54° C. at a cooling rate of 2° C./30 seconds or was kept at 37° C. for a certain period (24 hours, 48 hours).
The condition that the sample solution was cooled from 94° C. to 54° C. at a cooling rate of 2° C./30 seconds was a condition where a target double-stranded DNA (in this case, a 203-bp PCR product) can be converted to a single strand by the action of a heat energy and strand invasion can be caused by cooling slowly. Therefore, the condition simulated the use in a gene analysis technique.
The condition that temperature is kept at 37° C. for a certain period simulated an in vivo reaction, and therefore simulated the use in a nucleic acid medicine or genome edition.
The same procedures as in the step (3) above were carried out. In this experiment, only the staining using GelGreen (fluorescence staining) was carried out.
The reaction was carried out using a thermal cycler (StepOnePlus, Applied Biosystems), in which each of the sample solutions was cooled from 94° C. to 54° C. at a cooling rate of 2° C./30 seconds.
On the technique in general: A gel shift assay detects complexes by their altered migration in electrophoresis.

Data set [3] relates to single-stranded DNA (5′-d(AGCAAAAAACGC)-3′; SEQ ID NO: 6). The data set can be described thus: Melting temperature (Tm), capability of forming double strand with single-stranded DNA. The settings on record: sense strand 5′-d(AGCAAAAAACGC)-3′; 100 nM NaCl, 10 mM sodium phosphate buffer (pH 7.2), 4 μM of each strand; 0.5° C./min.
In data set [4] the test system is single-stranded RNA (5′-r(AGCAAAAAACGC)-3′; SEQ ID NO: 7). The following applies: pH 7.2.

On to “PNA20: PNA 20-mer H-(Lys)ggcatgttcatcatcagtaa(Lys)-NH2 (GGCATGTTCATCATCAGTAA; all peptide nucleic acid (PNA); Lys residue at N- and C-terminus, C-terminal amide)”, for which the “occurrence of strand invasion” value in data set [1] was “observed”; in data set [2] (oligonucleotide 100 nM (3.3 equivalents), DNA-1 30 nM, cooled from 94° C. to 54° C. or left at 37° C.) it was “the occurrence of strand invasion was not confirmed”. Also, in data set [2] (oligonucleotide 100 nM, DNA-1 30 nM, cooled from 94° C. to 54° C. or kept at 37° C. (24 hours, 48 hours)), the “occurrence of strand invasion (comparison of strand invasion functionality)” value was “the occurrence of strand invasion was not observed”. The “occurrence of strand invasion into the sequence for wild-type” value in data set [2] (oligonucleotide 200 nM, DNA-1 15 nM, cooled from 94° C. to 54° C. or kept at 37° C. (24 hours, 48 hours)) is reported as “did not cause strand invasion”.

Regarding “5′-d(GCGTTTTTTGCT)-3′: unmodified DNA antisense strand, SEQ ID NO: 5 (unmodified DNA)”, the Tm is 52 °C in data set [3]; 48 °C and 52 °C in data set [4].

Values taken from US12421272B2, “Artificial nucleic acid, production method therefor, and use thereof” (SYSMEX CORPORATION, priority 2019, dated 2025).
